This is an account of results in PubChem BioAssay (NCI).

Holding throughout (assay): DTP human tumour cell line panel, 48 h
The subject of test [1] is OVCAR-3 ovarian.
Test [2] concerns HCC-2998 colon.
Test [3] deals with XF 498 CNS.
Test [4] concerns NCI-H522 lung.
Test [5] deals with SK-OV-3 ovarian.
The test system of test [6] is CAKI-1 renal.
Test [7] concerns UACC-257 melanoma.
Test [8] relates to SNB-75 CNS.
Test [9] relates to MDA-N.
Test [10] has as its system NCI/ADR-RES ovarian.

Values joined by “and” are separate entries in the source; they are usually repeats but may differ in a detail not shown here. Identical values can stand only once.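 A five-concentration, 48-hour dose response in 96-well plates underlies each endpoint, interpolated linearly between surrounding concentrations. GI50 = concentration required for 50% inhibition of growth. TGI: total growth inhibition.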

For `COC(=O)C1CCC(=NC2c3ccccc3-c3ccccc32)N1` (centres undefined), the TGI (as a rule, the concentration at which net growth stops) in [1] is more than 100 µM; in test [2], more than 100 µM; in [3], more than 100 µM; in test [4] it was 58.6 µM; in test [5], more than 100 µM; in test [6], more than 100 µM. Moreover, the TGI in test [7] and in test [8] was more than 100 µM each time.
For `COC(=O)C(=O)C(C(=O)C(=O)Nc1ccccc1C(N)=O)c1nc2ccc(C(=O)c3ccccc3)cc2[nH]c1=O` (centres undefined), the TGI in test [2] is more than 100 µM; in [3] it was more than 100 µM; in [4], 93.8 µM; in test [6] it was more than 100 µM; in test [7], more than 100 µM.
Turning to `C/C(=N\NC(=S)N1CCC(C2CCN(C(=S)N/N=C(\C)c3ccccn3)CC2)CC1)c1ccccn1`, the TGI is more than 100 µM in [1]; more than 100 µM in [2]; 86.5 µM in [3]; more than 100 µM in test [4]; more than 100 µM in [5]; more than 100 µM in test [6]. Moreover, the results for the TGI in test [7] and in [8] were more than 100 µM and 67.4 µM, respectively.
`Clc1ccccc1C1=NN(c2ccccc2)C2c3cc(Br)ccc3OCC12` (centres undefined): the TGI in test [1], in [2], in test [3], in [4], in test [5] and in test [7] was more than 100 µM throughout. The compound further returned a concentration for total growth inhibition (TGI) in [8] of more than 100 µM.
As for `Nc1ccc2c(c1)CN1C(=O)c3ccccc3C1=N2`, the GI50 (commonly the concentration at which growth is held to half of that of the control) is 98.8 µM in [1], 12.8 µM in test [4], 46.5 µM in [5] and 67.5 µM in test [7]. Besides, the TGI in test [1] is more than 125 µM; in test [2], more than 125 µM; in [4] it was 112 µM; in [5], more than 122 µM; in [9], more than 125 µM; in test [6] it was more than 70.3 µM. The TGI is more than 125 µM in test [10], more than 125 µM in test [7] and 69.5 µM in [8].
With `CC[C@@]1(O)C(=O)OCc2c1cc1n(c2=O)Cc2cc3c(NC(C)=O)c(O)ccc3nc2-1`, the GI50 was 9.7 µM in [1]; 8.21 µM in test [2]; 5.39 µM in [3]; 0.565 µM in test [4]; 1.4 µM in test [5]; 0.468 µM in test [6]. Besides, the GI50 is 10.8 µM in test [7] and 0.744 µM in test [8]. The TGI in test [1] stood at 41.1 µM; in [2], 47.1 µM; in test [3] it was 51 µM; in [4], 14.5 µM; in test [5] it was 45.7 µM; in [6], 13.7 µM. In addition, the TGI is more than 86.6 µM in [7] and 7.31 µM in test [8].
In the case of `O=C(Cc1nc2ccc([N+](=O)[O-])cc2[nH]c1=O)C(=O)Nc1cc(Cl)c(Cl)cc1Cl`, the TGI in test [1], in test [2], in test [4], in [5], in test [9] and in [6] was more than 100 µM each time. The TGI in test [10], in test [7] and in test [8] was more than 100 µM each time.
On to `COc1cc(C2c3cc4c(cc3[C@@H](Nc3cccc(O)c3)C3COC(=O)[C@H]23)OCO4)cc(OC)c1O` (some centres undefined), for which the TGI in [1] was 12.6 µM; in test [2] it was 8.81 µM; in test [3], 0.985 µM and 8.34 µM; in test [4], 5.51 µM; in [5], 18 µM; in [9], 20.5 µM. Moreover, the TGI in test [6] stood at 4.59 µM; in test [10], 21.5 µM; in test [7], 16.9 µM; in test [8] it was 14.1 µM. Moreover, the GI50 in test [3] was 0.52 µM; in [4] it was 0.571 µM; in [6] it was 0.242 µM and 0.69 µM; in test [7], 0.925 µM; in test [8], 0.623 µM.
With `O=C1c2ccccc2C(=O)c2c1ccc1c3ccccc3n(Cc3ccccc3)c21`, the TGI in [1], in test [3], in test [4], in test [5], in test [6] and in test [8] was more than 100 µM each time.
Consider `O=C1c2cccc3cccc(c23)C(=O)N1CCCN1CCN(CCCN2C(=O)c3cccc4cccc(c34)C2=O)CC1`, for which the TGI in test [1], in test [2], in test [3], in test [5], in test [6] and in test [7] was more than 100 µM throughout. Also, the TGI in [8] is more than 100 µM.
On to `CCOC(=N)CC(=O)NC(C)c1ccccc1` (centres undefined), for which the TGI in test [1], in test [2], in [3], in test [4], in test [5] and in test [6] was more than 100 µM each time. For the same compound, the TGI in test [7] and in test [8] was more than 100 µM each time.
For the compound `CCCCCCCCCCCCCCCC(=O)OCC1OC(n2ccc(N)nc2=O)C(O)C1O` (centres undefined), the TGI in test [1] was more than 97 µM; in test [2], more than 100 µM; in test [3] it was more than 100 µM; in test [4], more than 100 µM; in test [5], more than 100 µM; in [9], more than 100 µM. Besides, the TGI in [6], in [10], in test [7] and in [8] was more than 100 µM each time.
As for `CCOC(=O)NNC(=O)NC12CC3CC(CC(C3)C1)C2`, the TGI in [1], in test [2], in test [3], in [4], in test [5] and in [6] was more than 100 µM throughout. For the same compound, the total growth inhibition concentration (TGI) in test [7] and in [8] was more than 100 µM throughout.
For `CN1c2ccccc2C(=O)Nc2cnc(Cl)nc21`, the TGI in test [1], in [2], in test [4], in test [5], in test [9] and in test [6] was more than 100 µM in each case. Further, the TGI in test [10], in [7] and in test [8] was more than 100 µM in each case.
Take `O=C1CC2Sc3ccccc3N=C2N1c1ccc(Cl)cc1Cl` (centres undefined): the TGI in test [1], in [2], in test [3], in [7] and in test [8] was more than 100 µM each time.
As for `O=[N+]([O-])O.[NH-]C1CCCCC1[NH-].[NH-]C1CCCCC1[NH-].[NH-]C1CCCCC1[NH-].[OH-].[OH-].[OH-].[Pt+4].[Pt+4].[Pt+4]` (centres undefined), the GI50 was 2.16 µM in [1]; 2.09 µM in [2]; 0.212 µM in test [4]; 19.6 µM in test [5]; 0.205 µM in test [9]; 0.222 µM in [6]. The GI50 in [10] is 1.15 µM; in [7], 1.27 µM; in [8], 1.49 µM. Also, the TGI in [1] is more than 68.1 µM; in [2], 19 µM; in test [4] it was 2.98 µM; in [5] it was more than 100 µM; in test [9], 6.74 µM; in test [6], 9.33 µM. Further, the TGI was more than 59.3 µM in test [10], 20.4 µM in [7] and 32.6 µM in [8].
As to `N#CC(=C=[N-])[n+]1ccc(Cl)cc1`, the TGI was 31.5 µM in [1]; 33.4 µM in [3]; 9.55 µM in [4]; more than 100 µM in test [5]; 10.9 µM in test [6]; 29.5 µM in [7]. This compound also displayed a TGI in [8] of 32.2 µM.
As for `N#CC1(C#N)C2C=CC(C3CCC=C32)C1(C#N)C#N` (centres undefined), the TGI was more than 10 µM in test [1]; more than 10 µM in test [2]; more than 7.9 µM in test [4]; more than 10 µM in [5]; more than 10 µM in [9]; more than 10 µM in test [6]. Further, the TGI in [10], in [7] and in test [8] was more than 10 µM each time.
Regarding `C/C(=N/Nc1ccc([N+](=O)[O-])cc1[N+](=O)[O-])C(CC(C(=O)Nc1ccccc1C)/C(C)=N\Nc1ccc([N+](=O)[O-])cc1[N+](=O)[O-])C(=O)Nc1ccccc1C` (centres undefined), the TGI in [1] is 22.4 µM; in test [2], 60.8 µM; in test [3] it was 33.8 µM; in [4] it was 41.8 µM; in [5] it was more than 61.2 µM; in test [6] it was 30 µM. Further, the TGI in test [7] came out at 43.9 µM; in [8], 29.4 µM.
As to `COc1cc2c(cc1OC)[C@H]1C(=O)c3cc4c(cc3[C@H]1N(C)C2=O)OCO4`, the TGI in test [1] was more than 100 µM; in test [2] it was more than 100 µM; in [4] it was more than 75 µM; in [5], more than 100 µM; in test [9] it was more than 100 µM; in test [6] it was more than 100 µM. Moreover, the TGI in [10], in test [7] and in test [8] was more than 100 µM in each case.
In the case of `CC(C)(C)NCCC(O)c1cc(C(F)(F)F)nc2c(C(F)(F)F)cccc12` (centres undefined), the TGI in [1] is 20.4 µM; in test [2], 8.73 µM; in test [4], 25.1 µM; in test [5] it was 30.3 µM; in test [9] it was 24 µM; in [6], 9.97 µM. Besides, the TGI is 15.2 µM in [10], 26.4 µM in [7] and 26.5 µM in test [8].
Regarding `Cc1ns/c(=N\C(=S)N(C)C)n1C`, the TGI in [2], in test [3], in [4], in test [5], in test [6] and in [7] was more than 100 µM each time. The compound further returned a TGI in [8] of more than 100 µM.
As for `COc1ccccc1NC(=O)C(=O)C1C(=O)Nc2ccccc2S1=O` (centres undefined), the TGI in [1], in [2], in [3], in test [4], in [5] and in [6] was more than 100 µM each time. Further, the TGI in test [7] and in [8] was more than 100 µM throughout.
For the compound `Cc1nc(C(N)=S)sc1C(=O)CC(=O)C(=O)Nc1cccc(Cl)c1C`, the TGI in test [1], in test [2], in test [4], in test [5], in test [9] and in [6] was more than 100 µM in each case. In addition, the TGI in [10], in test [7] and in [8] was more than 100 µM each time.
As for `CC(C)=C1CCC(CN2CCCC2)C1=O` (centres undefined), the TGI was 31.3 µM in [1]; 34.6 µM in [2]; 34 µM in [3]; 28.9 µM in test [6]; 66.7 µM in [7]; more than 100 µM in test [8].
